Some results are limits rather than exact numbers.

In general, IC50 refers to the concentration needed to halve the response being measured. Read a low IC50 as higher potency.

The target in this experiment is T1, Human cGAS amino acids 155-522 (Homo sapiens, UniProt Q8N884).
T1 construct: hexahistidine tag (N, cleaved yes); made in house; host or cells: E. coli BL21 DE3 Rosetta 2
T1 sequence (Q8N884 157-522): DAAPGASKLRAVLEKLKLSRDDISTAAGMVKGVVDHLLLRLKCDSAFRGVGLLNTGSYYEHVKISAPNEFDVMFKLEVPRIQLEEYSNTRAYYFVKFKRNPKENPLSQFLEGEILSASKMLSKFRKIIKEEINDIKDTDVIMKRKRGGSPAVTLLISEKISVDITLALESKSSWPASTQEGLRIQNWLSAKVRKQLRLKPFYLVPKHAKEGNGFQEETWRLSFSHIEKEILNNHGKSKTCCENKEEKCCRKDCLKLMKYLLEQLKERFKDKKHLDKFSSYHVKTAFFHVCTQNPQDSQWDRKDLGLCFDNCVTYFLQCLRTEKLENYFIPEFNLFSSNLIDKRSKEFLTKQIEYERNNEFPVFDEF
Briefly: cGAS activity assay (DNA-activated cGAS, remaining ATP measured by Kinase-Glo Max luciferase assay). The class given is biochemical. The conditions noted are these: 300 nM purified cGAS, 1 μM dsDNA, 250 μM ATP, 100 μM GTP, 37° C. for 1.25 hours. Here is the method: IC50 values were determined as follows:
Human cGAS sequence encoding amino acids 155-522 was cloned into a pET (EMD Millipore) based expression plasmid. The resulting construct contained a tandem N-terminal hexahistidine tag, maltose binding protein fusion followed by a tobacco etch virus protease cleavable linker preceding cGAS amino acids 155-522.
Construct sequence: Amino acids 155-522, Human cGAS
Protein was expressed and purified from E. coli BL21 DE3 Rosetta 2 (EMD Millipore) cells using standard techniques. Cells were grown in 2× yeast extract tryptone medium and expression was initiated via the addition of isopropyl β-D-1-thiogalactopyranoside. Expression proceeded overnight at 18° C. Cells were harvested by centrifugation and subsequently lysed via sonication. Insoluble fraction was removed by centrifugation. Maltose binding protein (MBP) fusion proteins were purified on a dextrin sepharose column (GE Healthcare) and the MBP tag was removed using tobacco etch virus protease overnight during dialysis. Protein was further purified on a heparin column (GE Healthcare) and eluted using a NaCl gradient. Column fraction were pooled and further purified on a Superdex 75 gel filtration column (GE Healthcare). Protein was quantified using 280 nm absorbance. Protein was then flash frozen in liquid nitrogen and stored at −80° C. until use.
Potential antagonists were diluted in 100% dimethyl sulfoxide and added to the reaction. Final dimethyl sulfoxide concentration was 5%. The compounds were tested from 1 μM with either 3- or 4-fold serial dilutions down to 0.000051 or 0.000004 μM respectively.
Two complementary DNA oligos (IDT DNA) were annealed by slow cooling from 95° C. The resulting double stranded DNA was used to activate cGAS.
Reactions were performed at 37° C. for 1.25 hours. Reaction buffer: 20 mM Tris HCl pH 9, 100 mM NaCl, 5 mM MgCl2, 0.1 mg/ml bovine gamma globulin, 250 μM adenosine triphosphate, 100 μM guanosine triphosphate, 0.5 mM Tris(2-carboxyethyl)phosphine hydrochloride, 1 μM double stranded DNA and 300 nM purified cGAS protein.
Reactions were stopped and ATP levels in the reaction were measured using a luciferase based assay. Promega Kinase-Glo Max Assay. Luminescence was measured on a plate reader (Molecular Devices). Values were normalized to control wells lacking compound.
(Kinase-Glo reads ATP consumption through a luciferase reaction.)
The compound `COC(=O)[C@H](Cc1ccc(C#N)cc1)Nc1nc(Cl)nc(Nc2cccc(CN3CCN(C(=O)OC(C)(C)C)CC3)c2)n1` [TA1002, tert-butyl (S)-4-(3-((4-chloro-6-((3-(4-cyanophenyl)-1-methoxy-1-oxopropan-2-yl)amino)-1,3,5-triazin-2-yl)amino)benzyl)piperazine-1-carboxylate] yielded a half-maximal inhibitory concentration (IC50) of more than 250 µM.
Consider `COC(=O)[C@H](Cc1ccc(C#N)cc1)Nc1nc(NCc2nc3cc(F)ccc3[nH]2)nc(Nc2cccc(CN3CCN(C(=O)OC(C)(C)C)CC3)c2)n1` [TA1003, tert-butyl (S)-4-(3-((4-((3-(4-cyanophenyl)-1-methoxy-1-oxopropan-2-yl)amino)-6-(((5-fluoro-1H-benzo[d]imidazol-2-yl)methyl)amino)-1,3,5-triazin-2-yl)amino)benzyl)piperazine-1-carboxylate], for which the half-inhibitory concentration (IC50) is more than 250 µM.
`CN(C)C(=O)[C@H](Cc1ccc(C#N)cc1)Nc1nc(Cl)nc(Nc2cccc(CN3CCN(C(=O)OC(C)(C)C)CC3)c2)n1` [TA1008, tert-butyl (S)-4-(3-((4-chloro-6-((3-(4-cyanophenyl)-1-(dimethylamino)-1-oxopropan-2-yl)amino)-1,3,5-triazin-2-yl)amino)benzyl)piperazine-1-carboxylate] returned a 50% inhibitory concentration (IC50) of more than 250 µM.
As for `CN(C)C(=O)[C@H](Cc1ccc(C#N)cc1)Nc1nc(Cl)nc(Nc2cccc(CN3CCNCC3)c2)n1` [TA1009, (S)-2-((4-chloro-6-((3-(piperazin-1-ylmethyl)phenyl)amino)-1,3,5-triazin-2-yl)amino)-3-(4-cyanophenyl)-N,N-dimethylpropanamide], the figure is more than 250 µM.
As to `CN(C)C(=O)[C@H](Cc1ccc(C#N)cc1)Nc1ncnc(Nc2cccc(CN3CCN(C(=O)OC(C)(C)C)CC3)c2)n1` [TA1010, tert-butyl (S)-4-(3-((4-((3-(4-cyanophenyl)-1-(dimethylamino)-1-oxopropan-2-yl)amino)-1,3,5-triazin-2-yl)amino)benzyl)piperazine-1-carboxylate], the IC50 is more than 250 µM.
For `CN(C)C(=O)[C@H](Cc1ccc(C#N)cc1)Nc1ncnc(Nc2cccc(CN3CCNCC3)c2)n1` [TA1011, (S)-3-(4-cyanophenyl)-N,N-dimethyl-2-((4-((3-(piperazin-1-ylmethyl)phenyl)amino)-1,3,5-triazin-2-yl)amino)propanamide] the value was more than 250 µM; for `CN(C)C(=O)[C@H](Cc1ccc(C#N)cc1)Nc1nc(NCc2nc3cc(F)ccc3[nH]2)nc(Nc2cccc(CN3CCNCC3)c2)n1` [TA1013, (S)-3-(4-cyanophenyl)-2-((4-(((5-fluoro-1H-benzo[d]imidazol-2-yl)methyl)amino)-6-((3-(piperazin-1-ylmethyl)phenyl)amino)-1,3,5-triazin-2-yl)amino)-N,N-dimethylpropanamide], more than 250 µM; for `Cc1cc2nc(CN(C)c3nc(Nc4cccc(CN5CCNCC5)c4)nc(N[C@@H](Cc4ccc(C#N)cc4)C(=O)N(C)C)n3)[nH]c2cc1C` [TA1014, (S)-3-(4-cyanophenyl)-2-((4-(((5,6-dimethyl-1H-benzo[d]imidazol-2-yl)methyl)(methyl)amino)-6-((3-(piperazin-1-ylmethyl)phenyl)amino)-1,3,5-triazin-2-yl)amino)-N,N-dimethylpropanamide], more than 250 µM.
For `Cc1cc2nc(CN(C)c3nc(Nc4cccc(CN5CCN(C(=O)c6cc7[nH]cnc7cc6C)CC5)c4)nc(N[C@@H](Cc4ccc(C#N)cc4)C(=O)N(C)C)n3)[nH]c2cc1C` [TA1015, (S)-3-(4-cyanophenyl)-2-((4-(((5,6-dimethyl-1H-benzo[d]imidazol-2-yl)methyl)(methyl)amino)-6-((3-((4-(5-methyl-1H-benzo[d]imidazole-6-carbonyl)piperazin-1-yl)methyl)phenyl)amino)-1,3,5-triazin-2-yl)amino)-N,N-dimethylpropanamide] the value was more than 250 µM; for `CN(C)C(=O)[C@H](Cc1ccc(C#N)cc1)Nc1nc(NCc2nc3cc(F)ccc3[nH]2)nc(Nc2cccc(CN3CCN(C=O)CC3)c2)n1` [TA1016, (S)-3-(4-cyanophenyl)-2-((4-(((5-fluoro-1H-benzo[d]imidazol-2-yl)methyl)amino)-6-((3-((4-formylpiperazin-1-yl)methyl)phenyl)amino)-1,3,5-triazin-2-yl)amino)-N,N-dimethylpropanamide], 20 to 250 µM.
As for `COCCNC(=O)[C@H](Cc1ccc(C#N)cc1)Nc1nc(NCc2nc3cc(F)ccc3[nH]2)nc(Nc2cccc(CN3CCNCC3)c2)n1` [TA1017, (S)-3-(4-cyanophenyl)-2-((4-(((5-fluoro-1H-benzo[d]imidazol-2-yl)methyl)amino)-6-((3-(piperazin-1-ylmethyl)phenyl)amino)-1,3,5-triazin-2-yl)amino)-N-(2-methoxyethyl)propanamide], the figure is more than 250 µM; as for `COC(=O)[C@@H](Cc1ccc(C#N)cc1)Nc1nc(NCc2nc3cc(F)ccc3[nH]2)nc(Nc2cccc(CN3CCNCC3)c2)n1` [TA1019, methyl (R)-3-(4-cyanophenyl)-2-((4-(((5-fluoro-1H-benzo[d]imidazol-2-yl)methyl)amino)-6-((3-(piperazin-1-ylmethyl)phenyl)amino)-1,3,5-triazin-2-yl)amino)propanoate], more than 250 µM.
Compound `CNC(=O)[C@H](Cc1ccc(C#N)cc1)Nc1nc(NCc2nc3cc(F)ccc3[nH]2)nc(Nc2cccc(CN3CCNCC3)c2)n1` [TA1022, (S)-3-(4-cyanophenyl)-2-((4-(((5-fluoro-1H-benzo[d]imidazol-2-yl)methyl)amino)-6-((3-(piperazin-1-ylmethyl)phenyl)amino)-1,3,5-triazin-2-yl)amino)-N-methylpropanamide] had a half-maximal inhibitory concentration (IC50) of more than 250 µM.
The compound `COCCOCCNC(=O)[C@H](Cc1ccc(C#N)cc1)Nc1nc(NCc2nc3cc(F)ccc3[nH]2)nc(Nc2cccc(CN3CCNCC3)c2)n1` [TA1023, (S)-3-(4-cyanophenyl)-2-((4-(((5-fluoro-1H-benzo[d]imidazol-2-yl)methyl)amino)-6-((3-(piperazin-1-ylmethyl)phenyl)amino)-1,3,5-triazin-2-yl)amino)-N-(2-(2-methoxyethoxy)ethyl)propanamide] had an IC50 of more than 250 µM.
For `COC(=O)[C@H](Cc1ccc(C#N)cc1)Nc1ncnc(Nc2cccc(CN3CCN(C(=O)c4nccnc4O)CC3)c2)n1` [TA1026, methyl (S)-3-(4-cyanophenyl)-2-((4-((3-((4-(3-hydroxypyrazine-2-carbonyl)piperazin-1-yl)methyl)phenyl)amino)-1,3,5-triazin-2-yl)amino)propanoate] the value was more than 250 µM; for `COC(=O)[C@H](Cc1ccc(C#N)cc1)Nc1nc(Nc2cccc(CN3CCNCC3)c2)nc(OC)n1` [TA1028, methyl (S)-3-(4-cyanophenyl)-2-((4-methoxy-6-((3-(piperazin-1-ylmethyl)phenyl)amino)-1,3,5-triazin-2-yl)amino)propanoate], more than 250 µM.
Compound `COCCOCCNC(=O)[C@H](Cc1ccc(C#N)cc1)Nc1nc(NCc2nc3cc(F)ccc3[nH]2)nc(Nc2cccc(CN3CCN(C(=O)c4nccnc4OC)CC3)c2)n1` [TA1029, (S)-3-(4-cyanophenyl)-2-((4-(((5-fluoro-1H-benzo[d]imidazol-2-yl)methyl)amino)-6-((3-((4-(3-methoxypyrazine-2-carbonyl)piperazin-1-yl)methyl)phenyl)amino)-1,3,5-triazin-2-yl)amino)-N-(2-(2-methoxyethoxy)ethyl)propanamide] yielded a 50% inhibitory concentration (IC50) of more than 250 µM.

(Values after patent US20210246122A1, “Triazine Compounds and Uses Thereof” (Aduro Biotech, Inc., priority 2018, published 2021).)
